The source of these data is patent US10238593B2, “System and method for preventing alopecia” (FOLLEA INTERNATIONAL, priority 2014, dated 2019).

In one experiment the test system is scalp hair. Description: Hair shedding: hairs removed with brush, 4-day protocol (Example 5). The experiment is classed as in vivo, human. An excerpt:
Patients: Fifteen female subjects, ages 18-40, were included in the study. Subjects were recruited based on their frequent use of traumatic hair care practices, such as, tight braids, head scarves, ponytails, extensions, hair rollers, hair weaves and heated styling appliances such as blow dryers, flat irons, heat setters and curling irons. Subjects with uncontrolled hypertension, that were pregnant or breastfeeding, had been diagnosed with pattern hair loss or with other hair loss in conjunction with female pattern hair loss were excluded from the study. […] Piloerection and blanching were visible after 30 minutes; the effect lasted for approximately 2-3 hours.
Hair Shedding: To measure hair loss during cosmetic procedures, a 4-day protocol was designed. On the first day patients were instructed to wash their hair and use styling products and procedures as they normally would. On the second day, patients were instructed not to wash their hair and to apply 0.5 mL of a placebo solution, containing a vehicle only, on the frontal area of the scalp in an 8×10 cm2 target area. Patients were instructed to wait 45 minutes, after which, they brushed their hair 20 times from the front of the scalp to the bottom of head using a new brush. After the procedure, the brushes were sealed in a plastic bag. […] After each clinical procedure, the investigator counted the hairs collected on each brush. […]

The subject of the next experiment is scalp hair follicles. Description: Epilation force measured with trichotillometer (Example 5). As to conditions: average of 10 subjects. Type of experiment: in vivo, human. On the procedure: To evaluate the effect of a topically applied α1-AR agonist on the force required to pluck hairs from the scalp, a hand-held spring dynamometer, or “trichotillometer” was used (8). The trichotillometer records the maximum force threshold, in grams, required to pluck a single hair from the scalp; the performance and statistical variance of the instrument have been reported previously (8-10). Force measurements were performed using the trichotillometer on 10 subjects. The frontal area of scalp was divided into two 8×10 cm2 areas. On the right side 0.5 mL of a placebo vehicle was applied. […] After 45 minutes, ten hairs were plucked from each of the target areas with the trichotillometer.

`CNC[C@H](O)c1cccc(O)c1` [phenylephrine]: the “subjects with reduced shedding compared to placebo” value in the experiment on scalp hair (15 female subjects, blinded study) came to 80%. Also, the “AVERAGE reduction in hair loss vs placebo” value with scalp hair (average of 15 subjects) is reported as “approximately 42%”. Further, the “AVERAGE increase of epilation force threshold vs placebo” value with scalp hair follicles is listed as “approximately 172%”.
